In article PMC8903829 (eLife, 2022):
Read-outs that look alike come from different tables or passages of the source.

Experiments:
[1] = Bioanalytical assessment of plasma and brain concentrations after mouse DC-MES assay; type: in vivo; details: mouse, intraperitoneal, WT mouse DC-MES acute
Protocol: (§1) Approximately 0.5 mL of blood was collected from each mouse at the end of the assay via cardiac puncture under deep anesthesia. The blood samples were collected in a syringe and transferred to tubes containing EDTA. Blood was stored at 4 °C until centrifuged within 30 min of collection. Plasma was harvested and placed on dry ice and stored in a freezer set to maintain a temperature of –70°C to –80°C until analysis. Brains were harvested immediately after blood collection and placed on dry ice prior to storage in a freezer set to maintain a temperature of –70°C to –80°C until analysis.
(§2) Extraction of plasma samples was carried out by protein precipitation using acetonitrile. Plasma samples (50 µL) were mixed with 50 µL of internal standard (IS) solution in water followed by addition of 10 µL of concentrated ortho-phosphoric acid and 200 µL of acetonitrile. Samples were vortexed for 30 seconds, centrifuged at 13,000 rpm for 20 min, decanted in to a 96-well plate, and further centrifuged at 4000 rpm for 20 min. The samples were analyzed by UHPLC-ESI-MS/MS as described below.
(§3) Prior to extraction, pre-weighed whole brains were homogenized in 1:1 acetonitrile/water (v/v) (4 mL per mouse brain) using an IKA T18 ULTRA-TURRAX Homogenizer at the setting of 4 for approximately 2 min. The homogenate was centrifuged at 13,000 rpm for 20 min and 50 µL of the supernatant were treated exactly as described above for plasma samples. […]
(§4) Samples were analyzed by UHPLC-ESI MS/MS using a TQ-5500 Sciex triple quadrupole mass spectrometer equipped with a Shimadzu Nexera UHPLC pump and auto-sampler system using an ACE C18 PFP, 2.50 × 50 mm, 1.7 µm particle size column and gradient elution consisting of solvent A (0.1% formic acid in water) and solvent B (0.1% formic acid in acetonitrile) starting at 20% B from 0 min to 0.4 min and then increased to 100% B from 0.4 min to 0.6 min. At 2.0 min, the mobile phase composition was switched back to […] for 1 min. The flow rate used throughout the experiment was […]. […] The UHPLC-ESI MS/MS system was controlled by Analyst 1.6.
(§5) Sample concentrations were determined using a linear calibration function, weighted 1 /X, generated by the regression of analyte to IS peak area ratios in the standard samples to their respective concentrations. Acceptance criteria for the analytical run required that the back calculated values of the standards and the QC samples fell within ±20% of their nominal values, except for the lowest standard or lower limit of quantitation (LLOQ), for which the acceptance criterion was ±25%. At least 6 out of 12 standard points had to show back-calculated values within ±20% of their nominal concentrations for the calibration to be accepted. At least three QC samples, one at each level, had to show back-calculated values within ±20% of their nominal concentrations for the whole sample batch to be valid.

Sprague Dawley rats = assay: Observation of potential adverse behavior (behavioral signs) in the rat DC-MES studies; type: in vivo; details: Sprague Dawley, rat, in vivo, 2 hr
Protocol: Animals were observed by the scientist(s) responsible for dosing for the first 30 min after dosing for and again at the time of assay (2 hr post dose) for signs of abnormal behavior.

[2] = test system: wild-type Sprague Dawley rats; assay: DC-Maximal electroshock seizure assay (DC-MES); type: in vivo, rat
Protocol: (§6) Phenytoin was formulated in physiologic saline and was administered intraperitoneally (i.p.) using a 25-gauge needle at a dose volume of 10 mL/kg. All compounds were administered 2 hr prior to electrical seizure induction for all seizure models employed in this study.
(§7) The maximal electroshock seizure (MES) assay has been extensively used in the search for anticonvulsant substances ([Löscher et al., 1991]; [Piredda et al., 1985]; [White et al., 1995]). The MES assay is sensitive to nonselective NaV inhibitors. It is considered a model for generalized tonic-clonic (GTC) seizures and provides an assessment of seizure spread. Briefly, an electroshock of direct current (DC) was delivered by corneal electrodes (Electro Convulsive Therapy Unit 57,800 from Ugo Basile). The parameters of stimulation were different between mice and rats. In CF1 mice aged 9–12 weeks, a direct current of 50 mA (60 Hz) was delivered for 0.2 s (pulse width of 0.5ms), whereas in Sprague Dawley (SD) rats aged 5–6 weeks, a direct current of 150 mA (60 Hz) was delivered for 0.3 s (pulse width of 0.5ms). Immediately prior to the electroshock, the animals’ eyes were anesthetized with a drop of Alcaine (0.5% proparacaine hydrochloride).
(§8) An animal was considered protected in the assay in the absence of a GTC with hindlimb extension and is then scored ‘0’. An animal displaying GTC with hindlimb extension was considered not protected and is then scored ‘1’. The experimenter scoring the seizure behavior was blinded to the treatment.

Scn8a^N1768D/+ mice = assay: Modified 6 Hz psychomotor seizure assay; type: in vivo, mouse
Protocol: as §6
Scn8a^N1768D/+heterozygous mice were tested at 5 weeks of age (p35). The modified 6 Hz seizure assay in Scn8a^N1768D/+heterozygous mice was adapted from the traditional 6 Hz assay psychomotor seizure assay to provide a measure of in vivo on target (NaV1.6 mediated) efficacy ([Barton et al., 2001]). The modified assay used a low frequency (6 Hz) but long-duration stimulation (3 s) to induce seizures. […] An electroshock (6 Hz, 12 mA) was delivered for 3 s (at 0.3-ms pulse interval) by corneal electrodes (Electro Convulsive Therapy Unit 57,800 from Ugo Basile). Immediately prior to the electroshock, the animals’ eyes were anesthetized with a drop of Alcaine (0.5% proparacaine hydrochloride).
An animal was considered protected in the assay upon prevention of GTC with hindlimb extension and was then scored ‘0’. An animal displaying GTC with hindlimb extension was considered not protected and is then scored ‘1’. The experimenter scoring the seizure behavior was blinded to the treatment.

wild-type mice (CF-1) = assay: DC-Maximal electroshock seizure assay (DC-MES); type: in vivo, mouse
Protocol: as §6, §7, §8

[3] = Bioanalytical assessment of plasma and brain concentrations after rat DC-MES assay; type: in vivo; details: Study18085, 2 mg/kg, Rat DC-MES
[4] = Bioanalytical assessment of plasma and brain concentrations after 6 Hz assay; type: in vivo, mouse
Protocol: as §1, §2, §3, §4, §5

[5] = Study16042, 1 mg/kg, SCN8A mouse 6HZ
[6] = Study16042, 3 mg/kg, SCN8A mouse 6HZ
[7] = Study16042, 10 mg/kg, SCN8A mouse 6HZ
[8] = Study16042, 30 mg/kg, SCN8A mouse 6HZ
[9] = Study16042, 56 mg/kg, SCN8A mouse 6HZ
[10] = Study16189, 10 mg/kg, SCN8A mouse 6HZ
[11] = Study16189, 30 mg/kg, SCN8A mouse 6HZ
[12] = Study16202, 1 mg/kg, P75, SCN8A mouse 6HZ
[13] = Study16202, 3 mg/kg, P75, SCN8A mouse 6HZ

O=C1NC(=O)C(c2ccccc2)(c2ccccc2)N1 [phenytoin, Phenytoin]
concentration at 2 h ([1]; brain, 2 mg/kg, Study17131, 2 mg/kg, read-out: Mean [Brain]): 6.12 µM
concentration at 2 h ([1]; brain, 2 mg/kg, Study17136, 2 mg/kg, read-out: Mean [Brain]): 3.6 µM
concentration at 2 h ([1]; brain, 5 mg/kg, Study16130, 5 mg/kg, read-out: Mean [Brain]): 17.9 µM
concentration at 2 h ([1]; brain, 5 mg/kg, Study17136, 5 mg/kg, read-out: Mean [Brain]): 10.9 µM
concentration at 2 h ([1]; brain, 10 mg/kg, Study16130, 10 mg/kg, read-out: Mean [Brain]): 38.3 µM
concentration at 2 h ([1]; plasma, 2 mg/kg, Study17131, 2 mg/kg, read-out: Mean [Palsma]): 3.42 µM
concentration at 2 h ([1]; plasma, 2 mg/kg, Study17136, 2 mg/kg, read-out: Mean [Palsma]): 3.65 µM
concentration at 2 h ([1]; plasma, 5 mg/kg, Study16130, 5 mg/kg, read-out: Mean [Palsma]): 16.1 µM
concentration at 2 h ([1]; plasma, 5 mg/kg, Study17136, 5 mg/kg, read-out: Mean [Palsma]): 11.5 µM
concentration at 2 h ([1]; plasma, 10 mg/kg, Study16130, 10 mg/kg, read-out: Mean [Palsma]): 30.7 µM
minimal plasma concentration provoking behavioral signs (BSC) (Sprague Dawley rats): 11 µM
EC50 ([2]; WT rat DC-MES (oral; phenytoin i.p.), read-out: plasma EC50): 4.5 µM
EC50 ([2]; WT rat DC-MES, 2 hr post dose (oral; phenytoin i.p.), read-out: brain EC50): 2.6 µM
EC50 (Scn8a^N1768D/+ mice; Mus musculus, Scn8a^N1768D/+ 6 Hz model, 2 hr post dose (oral; phenytoin i.p.), read-out: brain EC50): 18 µM
WT mouse DC-MES acute Fraction of animals seizing (wild-type mice (CF-1); Study16130, 5 mg/kg): 0.5714
WT mouse DC-MES acute Fraction of animals seizing (wild-type mice (CF-1); Study16130, 10 mg/kg): 0
WT mouse DC-MES acute Fraction of animals seizing (wild-type mice (CF-1); Study17131, 2 mg/kg): 0.6667
WT mouse DC-MES acute Fraction of animals seizing (wild-type mice (CF-1); Study17136, 2 mg/kg): 0.7143
WT mouse DC-MES acute Fraction of animals seizing (wild-type mice (CF-1); Study17136, 5 mg/kg): 0.625
EC50 (wild-type mice (CF-1); WT mouse DC-MES, 2 hr post dose (oral; phenytoin i.p.), read-out: brain EC50): 13 µM

O=C1NC(=O)C(c2ccccc2)(c2ccccc2)N1 [PHT]
Mean [Brain] [3]: 1.841 µM
Mean [Palsma] [3]: 3.4567 µM
Rat DC-MES Fraction of animals seizing ([2]; Study18085, 2 mg/kg): 0.667
SCN8A mouse 6HZ Fraction of animals seizing (Scn8a^N1768D/+ mice; Study16042, 1 mg/kg): 1
SCN8A mouse 6HZ Fraction of animals seizing (Scn8a^N1768D/+ mice; Study16042, 3 mg/kg): 0.75
SCN8A mouse 6HZ Fraction of animals seizing (Scn8a^N1768D/+ mice; Study16042, 10 mg/kg): 0.25
SCN8A mouse 6HZ Fraction of animals seizing (Scn8a^N1768D/+ mice; Study16042, 30 mg/kg): 0
SCN8A mouse 6HZ Fraction of animals seizing (Scn8a^N1768D/+ mice; Study16042, 56 mg/kg): 0
SCN8A mouse 6HZ Fraction of animals seizing (Scn8a^N1768D/+ mice; Study16189, 10 mg/kg): 0.15
SCN8A mouse 6HZ Fraction of animals seizing (Scn8a^N1768D/+ mice; Study16189, 30 mg/kg): 0
SCN8A mouse 6HZ Fraction of animals seizing (Scn8a^N1768D/+ mice; Study16202, 1 mg/kg, P75): 1
SCN8A mouse 6HZ Fraction of animals seizing (Scn8a^N1768D/+ mice; Study16202, 3 mg/kg, P75): 0.858
Mean [Brain] [4, 5]: 2.665 µM
Mean [Palsma] [4, 5]: 1.798 µM
Mean [Brain] [4, 6]: 11.7685 µM
Mean [Palsma] [4, 6]: 7.584 µM
Mean [Brain] [4, 7]: 38.4981 µM
Mean [Palsma] [4, 7]: 32.6675 µM
Mean [Brain] [4, 8]: 120.646 µM
Mean [Palsma] [4, 8]: 92.6612 µM
Mean [Brain] [4, 9]: 109.171 µM
Mean [Palsma] [4, 9]: 127.343 µM
Mean [Brain] [4, 10]: 29.4623 µM
Mean [Palsma] [4, 10]: 26.0411 µM
Mean [Brain] [4, 11]: 76.4798 µM
Mean [Palsma] [4, 11]: 59.0466 µM
Mean [Brain] [4, 12]: 2.628 µM
Mean [Palsma] [4, 12]: 2.477 µM
Mean [Brain] [4, 13]: 7.154 µM
Mean [Palsma] [4, 13]: 7.163 µM
